Columns and labels:
[1] = system: mouse model of intestinal fibrosis; experiment: DSS chronic colitis mouse model of intestinal fibrosis; assay type: in vivo, FVB/N mice; conditions: 5 mg/kg IP twice a day for 28 days from day 41, colons day 69, vs vehicle
Procedure: To establish a model of intestinal fibrosis due to chronic colitis, 8-week male FVB/N mice were subjected to three cycles of dextran sodium sulfate (DSS; 2% w/v) in sterile drinking water. Each cycle consisted of 7 days of DSS followed by 10 days of recovery without DSS. […] On day 69, colons were harvested from mice, longitudinally open, and embedded in agar for orientation, and fixed in formalin overnight. Slides were prepared from paraffin-embedded formalin-fixed samples according to standard procedures. The degree of fibrosis in the mouse colon in the two groups were compared by Masson's Trichrome staining. The intensity of positive trichrome staining was quantified using ImageJ software in the following manner. 10 evenly spaced images were captured at 20× from each third of the colon from each mouse. (FIGS. 7(A-D)) Significant lymphovascular compartments or extracolonic connective tissue attachments seen on slides were excluded during the image capture. RGB channels were split from the images, and the blue channel from each image was divided by the red channel. After generating an intensity histogram of all pixels in the resultant image, the area under the curve (AUC) was calculated for intensities above 1.3 (blue/red) cutoff. The sum of AUC (total trichrome intensity) was normalized by the colon length.

[2] = system: mouse model of idiopathic pulmonary fibrosis; experiment: bleomycin mouse model of idiopathic pulmonary fibrosis; assay type: in vivo, C57/BL6J mice; conditions: vs vehicle
Procedure: 8 week old female C57/BL6J mice were purchased from Jackson Labs (stock #000664). All mouse studies were approved by the institutional animal care and use committee at Case Western Reserve University.
To induce disease onset, mice were anesthetized with ketamine/xylazine and the trachea exposed by cervical […]. Bleomycin sulfate (Enzo-BML-AP302-0010) was dissolved in H2O and administered intratracheally as a single dose of 2 mg/kg in 50 μl solution per animal.
Mortality was observed daily over the duration of the study. Body weights were measured prior to instillation and twice weekly post-bleomycin instillation.
Hydroxyproline was used to measure collagen content in mouse lungs (Sigma-MAK008-1KT). Briefly, mice were sacrificed and the right lung dissected for collagen quantitation. Experiments were performed according to the manufacturer's protocol. […] The hydrolyzed samples were incubated with 4-(Dimethylamino) benzaldehyde (DMAB) for 90 min at 60° C., and the absorbance of oxidized hydroxyproline was measured at 560 nm.

[3] = plasma half-life after IP injection into mice; assay type: in vivo; conditions: mouse, injected IP into mice
[4] = system: PGE2 production by cell lines; experiment: PGE2 production by cell lines; assay type: cell-based
[5] = chemical stability in aqueous solutions; assay type: physicochemical; conditions: over broad pH range
[6] = chemical stability when incubated with hepatocyte cell lines; assay type: in vitro ADME
[7] = chemical stability when incubated with hepatocyte extracts; assay type: in vitro ADME
mice = experiment: toxicity after IP injection into mice
[8] = chemical stability when incubated with human liver extracts; assay type: in vitro ADME
[9] = chemical stability when incubated with rat liver extracts; assay type: in vitro ADME
[10] = chemical stability when incubated with mouse liver extracts; assay type: in vitro ADME
recombinant 15-PGDH = target: T1, recombinant 15-PGDH (Homo sapiens, UniProt P15428); experiment: inhibition of recombinant 15-PGDH; assay type: biochemical
T1 sequence (P15428 1-266): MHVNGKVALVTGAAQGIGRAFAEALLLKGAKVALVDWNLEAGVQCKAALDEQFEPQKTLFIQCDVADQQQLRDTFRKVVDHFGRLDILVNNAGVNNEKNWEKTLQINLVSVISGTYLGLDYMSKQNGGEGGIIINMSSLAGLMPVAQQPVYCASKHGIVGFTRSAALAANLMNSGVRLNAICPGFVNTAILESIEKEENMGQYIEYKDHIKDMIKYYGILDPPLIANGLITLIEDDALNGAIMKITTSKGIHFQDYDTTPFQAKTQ

[11] = 5.0 mg/kg IP 2× daily for 35 days after bleomycin

SMILES: CCCC[S+]([O-])c1sc2nc(-c3cccs3)cc(-c3ccccc3)c2c1N (single isomer, unassigned; (+)) [(+)SW033291]
- colonic fibrosis (Masson's Trichrome staining intensity normalized by colon length) [1]: substantially reduced

SMILES: CCCC[S+]([O-])c1sc2nc(-c3cccs3)cc(-c3ccccc3)c2c1N (stereo not drawn) [SW033291, 2-(butylsulfinyl)-4-phenyl-6-(thiophen-2-yl)thieno[2,3-b]pyridin-3-amine]
- survival [2, 11]: improved survival
- weight change [2, 11]: enhanced maintenance of weight
- collagen deposition (tissue hydroxyproline content) ([2]; lung, 5.0 mg/kg IP 2× daily after bleomycin): reduced collagen deposition

SMILES: CCCC[S+]([O-])c1sc2nc(-c3cccs3)cc(-c3ccccc3)c2c1N (stereo not drawn) [formula (IX)]
- half-life [3]: 4.22 h
- PGE2 production by cell lines [4]: increase PGE2 production
- chemical stability in aqueous solutions [5]: chemically stable
- chemical stability with hepatocyte cell lines [6]: chemically stable
- chemical stability with hepatocyte extracts [7]: chemically stable
- toxicity (mice; injected IP into mice at 0.3 μmole/per mouse twice daily for 21 days): no toxicity
- immediate toxicity over 24 hours (mice; injected IP into mice at 0.6 μmole/per mouse): no immediate toxicity
- immediate toxicity over 24 hours (mice; injected IP into mice at 1.2 μmole/per mouse): no immediate toxicity

SMILES: CCCC[S+]([O-])c1sc2nc(-c3nccs3)cc(-c3cnc(C)n3C)c2c1N (stereo not drawn) [formula (X)]
- chemical stability with liver extracts [8]: chemically stable
- half-life [3]: 0.55 h
- concentration at which PGE2 production by cell lines is increased [4]: 20 nM
- chemical stability with liver extracts [9]: chemically stable
- chemical stability with liver extracts [10]: chemically stable
- concentration at which recombinant 15-PGDH is inhibited (recombinant 15-PGDH): 3 nM
